Test results as given in ChEMBL document CHEMBL1649521, “Influence of the cytochrome P450 2B6 genotype on population pharmacokinetics of efavirenz in human immunodeficiency virus patients” (Antimicrob Agents Chemother, 2009).

How the values were obtained:
[1] = Apparent oral volume of distribution in patient with HIV infection at 600 mg/kg QD; type: ADME, organism-based; parameters: dose 600 mg/kg, route oral; conditions: human, in vivo, read-out: Vc/F
[2] = Apparent oral clearance in patient with HIV infection at 600 mg/kg, […] QD; type: ADME, organism-based; parameters: dose 600 mg/kg, route oral; conditions: human, in vivo

Vd/F [1]: 295 L | CL/F [2]: 154 mL/min
SMILES: O=C1Nc2ccc(Cl)cc2[C@@](C#CC2CC2)(C(F)(F)F)O1 [EFAVIRENZ]
